Laboratory results from patent publication US6737383B1, “Herbicidal oxadiazolidines” (priority 1999, dated 2004).

Experiments:
[1] = system: rape; assay: Test B pre/postemergence rape; type: in vivo, Brassica napus; settings: for Plant response rating, Rape: Postemergence; for Rape plant response rating: scale of 0 to 10 where 0 is no effect and 10 is complete control
Method in brief: (§1)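 Herbicidal effect was estimated by eye on a ten-point control scale after plants spent twelve to sixteen days in a greenhouse following soil or foliar treatment. Foliar sprays targeted plants at one to four leaves; all doses were formulated in a non-phytotoxic solvent with surfactant.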

[2] = system: crabgrass; assay: Test B pre/postemergence crabgrass; type: in vivo, Digitaria sanguinalis; settings: for Plant response rating, Crabgrass: Postemergence; for Crabgrass plant response rating: scale of 0 to 10 where 0 is no effect and 10 is complete control
Method in brief: as §1

[3] = system: surinam grass; assay: Test B pre/postemergence surinam grass; type: in vivo, Brachiaria decumbens; settings: for Plant response rating, B. signalgrass: Postemergence
Method in brief: as §1

[4] = system: sugar beet; assay: Test B pre/postemergence sugar beet; type: in vivo, Beta vulgaris; settings: for Plant response rating, Sugarbeets: Postemergence; for Sugarbeets plant response rating: scale of 0 to 10 where 0 is no effect and 10 is complete control
Method in brief: as §1

[5] = system: duck salad; assay: Test B flood test duck salad; type: in vivo, Heteranthera limosa; settings: Pre-emergence
Method in brief: (§2)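 Plants were grown to the 2-leaf stage before treatment with test chemical, then held in a greenhouse for twelve to sixteen days. Injury was visually rated against untreated controls on a 0–10 scale, where 0 is no effect and 10 is complete control.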

[6] = system: wild oat; assay: Test B pre/postemergence wild oat; type: in vivo, Avena fatua; settings: for Plant response rating, Wild oats: Postemergence; for Wild oats plant response rating: scale of 0 to 10 where 0 is no effect and 10 is complete control
Method in brief: as §1

[7] = system: blackgrass; assay: Test B pre/postemergence blackgrass; type: in vivo, Alopecurus myosuroides; settings: for Plant response rating, Blackgrass: Postemergence
Method in brief: as §1

[8] = system: pigweed; assay: Test B pre/postemergence pigweed; type: in vivo, Amaranthus retroflexus; settings: for Plant response rating, Redroot pigweed: Postemergence; for Redroot pigweed plant response rating: scale of 0 to 10 where 0 is no effect and 10 is complete control
Method in brief: as §1

[9] = system: smallflower flatsedge; assay: Test B flood test smallflower flatsedge; type: in vivo, Cyperus difformis; settings: Pre-emergence
Method in brief: as §2

[10] = system: soybean; assay: Test B pre/postemergence soybean; type: in vivo, Glycine max; settings: for Plant response rating, Soybean: Postemergence; for Soybean plant response rating: scale of 0 to 10 where 0 is no effect and 10 is complete control
Method in brief: as §1

[11] = system: giant foxtail; assay: Test B pre/postemergence giant foxtail; type: in vivo, Setaria faberii; settings: for Plant response rating, Giant foxtail: Postemergence; for Giant foxtail plant response rating: Preemergence, scale of 0 to 10 where 0 is no effect and 10 is complete control
Method in brief: as §1

[12] = system: bedstraw; assay: Test B pre/postemergence bedstraw; type: in vivo, Galium aparine; settings: for Plant response rating, Bedstraw: Postemergence
Method in brief: as §1

[13] = system: velvetleaf; assay: Test B pre/postemergence velvetleaf; type: in vivo, Abutilon theophrasti; settings: for Plant response rating, Velvetleaf: Postemergence; for Velvetleaf plant response rating: scale of 0 to 10 where 0 is no effect and 10 is complete control
Method in brief: as §1

[14] = system: cocklebur; assay: Test B pre/postemergence cocklebur; type: in vivo, Xanthium strumarium; settings: for Plant response rating, Cocklebur: Postemergence; for Cocklebur plant response rating: scale of 0 to 10 where 0 is no effect and 10 is complete control
Method in brief: as §1

[15] = system: morningglory; assay: Test B pre/postemergence morningglory; type: in vivo, Ipomoea hederacea; settings: for Plant response rating, Morningglory: Postemergence; for Morningglory plant response rating: scale of 0 to 10 where 0 is no effect and 10 is complete control
Method in brief: as §1

[16] = system: corn; assay: Test B pre/postemergence corn; type: in vivo, Zea mays; settings: for Plant response rating, Corn: Postemergence; for Corn plant response rating: scale of 0 to 10 where 0 is no effect and 10 is complete control
Method in brief: as §1

[17] = system: purple nutsedge; assay: Test B pre/postemergence purple nutsedge; type: in vivo, Cyperus rotundus; settings: for Plant response rating, Nutsedge: Postemergence; for Nutsedge plant response rating: scale of 0 to 10 where 0 is no effect and 10 is complete control
Method in brief: as §1

[18] = system: wheat; assay: Test B pre/postemergence wheat; type: in vivo, Triticum aestivum; settings: for Plant response rating, Wheat: Postemergence; for Wheat plant response rating: scale of 0 to 10 where 0 is no effect and 10 is complete control
Method in brief: as §1

[19] = system: rice; assay: Test B flood test rice; type: in vivo, Oryza sativa; settings: Pre-emergence
Method in brief: as §2

[20] = system: bamyardgrass; assay: Test B flood test barnyardgrass; type: in vivo, Echinochloa crus-galli; settings: Pre-emergence
Method in brief: as §2

[21] = Rate 125 g/ha, scale 0 to 10, 0 is no effect, 10 is complete control
[22] = Rate 500 g/ha, scale 0 to 10, 0 no effect, 10 complete control
[23] = Preemergence, Rate 250 g/ha, scale of 0 to 10 where 0 is no effect and 10 is complete control
[24] = Preemergence, Rate 500 g/ha, scale of 0 to 10 where 0 is no effect and 10 is complete control
[25] = Rate 250 g/ha, scale of 0 to 10 where 0 is no effect and 10 is complete control
[26] = Rate 1000 g/ha, scale 0 to 10 (0 no effect, 10 complete control)
[27] = Rate 125 g/ha, flood test species, scale 0 to 10 where 0 is no effect and 10 is complete control
[28] = Rate 250 g/ha, flood-test species, scale 0 to 10, 0 is no effect, 10 is complete control
[29] = Rate 500 g/ha, flood test species, scale 0 to 10 (0 no effect, 10 complete control)

CCOC(=O)C(C)N(C(=O)n1oc(=O)n(-c2c(C)cccc2OC)c1=O)c1ccc(F)cc1 (centres unmarked) [Compound 331]
0: Plant response rating, Rape [1, 21] | Rape plant response rating (0 to 10 scale) ([1]; Preemergence, Rate 125 g/ha) | Rape plant response rating ([1]; Preemergence, Rate 250 g/ha) | Rape plant response rating ([1]; Preemergence, Rate 500 g/ha) | Plant response rating, Rape [1, 22] | Plant response rating, Crabgrass [2, 21] | Crabgrass plant response rating (0 to 10 scale) ([2]; Preemergence, Rate 125 g/ha) | Crabgrass plant response rating ([2]; Preemergence, Rate 250 g/ha) | Crabgrass plant response rating ([2]; Preemergence, Rate 500 g/ha) | Plant response rating, Crabgrass [2, 22] | Plant response rating, B. signalgrass [3, 21] | B. signalgrass plant response rating (0 to 10 scale, 0 is no effect, 10 is complete control) ([3]; Preemergence, Rate 125 g/ha) | B. signalgrass plant response rating [3, 23] | B. signalgrass plant response rating [3, 24] | Plant response rating, B. signalgrass [3, 25] | Plant response rating, B. signalgrass [3, 22] | Plant response rating, Sugarbeets [4, 21] | Sugarbeets plant response rating (0 to 10 scale) ([4]; Preemergence, Rate 125 g/ha) | Sugarbeets plant response rating ([4]; Preemergence, Rate 250 g/ha) | Sugarbeets plant response rating ([4]; Preemergence, Rate 500 g/ha) | Plant response rating, Sugarbeets [4, 22] | Ducksalad plant response rating [5, 26] | Ducksalad plant response rating [5, 27] | Ducksalad plant response rating [5, 28] | Ducksalad plant response rating [5, 29] | Plant response rating, Wild oats [6, 21] | Wild oats plant response rating (0 to 10 scale) ([6]; Preemergence, Rate 125 g/ha) | Wild oats plant response rating ([6]; Preemergence, Rate 250 g/ha) | Wild oats plant response rating ([6]; Preemergence, Rate 500 g/ha) | Plant response rating, Wild oats [6, 22] | Plant response rating, Blackgrass [7, 21] | Blackgrass plant response rating (0 to 10 scale) ([7]; Preemergence, Rate 125 g/ha) | Blackgrass plant response rating [7, 23] | Blackgrass plant response rating [7, 24] | Plant response rating, Blackgrass [7, 25] | Plant response rating, Blackgrass [7, 22] | Plant response rating, Redroot pigweed [8, 21] | Redroot pigweed plant response rating (0 to 10 scale) ([8]; Preemergence, Rate 125 g/ha) | Redroot pigweed plant response rating ([8]; Preemergence, Rate 250 g/ha) | Redroot pigweed plant response rating ([8]; Preemergence, Rate 500 g/ha) | Plant response rating, Redroot pigweed [8, 22] | S. Flatsedge plant response rating [9, 26] | S. Flatsedge plant response rating [9, 27] | S. Flatsedge plant response rating [9, 28] | S. Flatsedge plant response rating [9, 29] | Plant response rating, Soybean [10, 21] | Soybean plant response rating (0 to 10 scale) ([10]; Preemergence, Rate 125 g/ha) | Soybean plant response rating ([10]; Preemergence, Rate 250 g/ha) | Soybean plant response rating ([10]; Preemergence, Rate 500 g/ha) | Plant response rating, Soybean [10, 22] | Plant response rating, Giant foxtail [11, 21] | Giant foxtail plant response rating ([11]; Rate 250 g/ha) | Giant foxtail plant response rating ([11]; Rate 500 g/ha) | Plant response rating, Giant foxtail [11, 22] | Plant response rating, Bedstraw [12, 21] | Bedstraw plant response rating [12, 24] | Plant response rating, Bedstraw [12, 22] | Plant response rating, Velvetleaf [13, 21] | Velvetleaf plant response rating (0 to 10 scale) ([13]; Preemergence, Rate 125 g/ha) | Velvetleaf plant response rating ([13]; Preemergence, Rate 250 g/ha) | Velvetleaf plant response rating ([13]; Preemergence, Rate 500 g/ha) | Plant response rating, Velvetleaf [13, 22] | Plant response rating, Cocklebur [14, 21] | Cocklebur plant response rating (0 to 10 scale) ([14]; Preemergence, Rate 125 g/ha) | Cocklebur plant response rating ([14]; Preemergence, Rate 250 g/ha) | Cocklebur plant response rating ([14]; Preemergence, Rate 500 g/ha) | Plant response rating, Cocklebur [14, 22] | Plant response rating, Morningglory [15, 21] | Morningglory plant response rating (0 to 10 scale) ([15]; Preemergence, Rate 125 g/ha) | Morningglory plant response rating ([15]; Preemergence, Rate 250 g/ha) | Morningglory plant response rating ([15]; Preemergence, Rate 500 g/ha) | Plant response rating, Morningglory [15, 22] | Plant response rating, Corn [16, 21] | Corn plant response rating (0 to 10 scale) ([16]; Preemergence, Rate 125 g/ha) | Corn plant response rating ([16]; Preemergence, Rate 250 g/ha) | Corn plant response rating ([16]; Preemergence, Rate 500 g/ha) | Plant response rating, Corn [16, 22] | Plant response rating, Nutsedge [17, 21] | Nutsedge plant response rating (0 to 10 scale) ([17]; Preemergence, Rate 125 g/ha) | Nutsedge plant response rating ([17]; Preemergence, Rate 250 g/ha) | Nutsedge plant response rating ([17]; Preemergence, Rate 500 g/ha) | Plant response rating, Nutsedge [17, 22] | Plant response rating, Wheat [18, 21] | Wheat plant response rating (0 to 10 scale) ([18]; Preemergence, Rate 125 g/ha) | Wheat plant response rating ([18]; Preemergence, Rate 250 g/ha) | Wheat plant response rating ([18]; Preemergence, Rate 500 g/ha) | Plant response rating, Wheat [18, 22] | Rice plant response rating [19, 26] | Rice plant response rating [19, 27] | Rice plant response rating [19, 28] | Rice plant response rating [19, 29] | Barnyardgrass plant response rating [20, 26] | Barnyardgrass plant response rating [20, 27] | Barnyardgrass plant response rating [20, 28] | Barnyardgrass plant response rating [20, 29]
